Drawing on patent US20230141600A1, “IMIDAZOPYRAZINE DERIVATIVES” (priority 2020, published 2023), this text covers IC90 for 19 molecules.

Structures can show the parent of a compound that is named as a salt.

The first experiment relates to Acinetobacter baumannii ATCC17961. The experiment is described as follows: 90% growth inhibitory concentration (IC90) determination, antimicrobial susceptibility testing. The experiment is classed as cell-based. Particulars: 90% growth inhibition, Iso-Sensitest broth, OD 600 nm over 16 h, 35±2° C.; read-out: ATCC 17961 IC90. Here is the method:
Antimicrobial Susceptibility Testing:
90% Growth Inhibitory Concentration (IC90) Determination
The in vitro antimicrobial activity of the compounds was determined according to the following procedure:
The assay used a 10-points Iso-Sensitest broth medium to measure quantitatively the in vitro activity of the compounds against Acinetobacter baumannii ATCC17961 and ATCC17978.
Stock compounds in DMSO were serially twofold diluted (e.g. range from 50 to 0.097 μM final concentration) in 384 wells microtiter plates and inoculated with 49 μl the bacterial suspension in Iso-Sensitest medium to have a final cell concentration of ˜5×10^(5) CFU/ml in a final volume/well of 50 ul/well. Microtiter plates were incubated at 35±2° C.
Bacterial cell growth was determined with the measurement of optical density at λ=600 nm each minutes over a time course of 16 h. Growth inhibition was calculated during the logarithmic growth of the bacterial cells with determination of the concentration inhibiting 50% (IC50) and 90% (IC90) of the growth.
Table 2 provides the 90% growth inhibitory concentrations (IC90) in micromoles per liter of the compounds of present invention obtained against the strain Acinetobacter baumannii ATCC17961.
In the case of `CCc1cc(Nc2nccn3c(-c4ccc(OC)c(F)c4F)cnc23)ccc1C(=O)NCC[C@H](NC(=O)C1CC[N+](C)(CC2CNC2)CC1)C(=O)OC` (mixture of isomers) [Example 121, Methyl (2S)-2-[[1-(azetidin-3-ylmethyl)-1-methyl-piperidin-1-ium-4-carbonyl]amino]-4-[[4-[[3-(2,3-difluoro-4-methoxy-phenyl)imidazo[1,2-a]pyrazin-8-yl]amino]-2-ethyl-benzoyl]amino]butanoate formate 2,2,2-trifluoroacetate (Mixed Salt)], the IC90 stood at 854 nM.

As for `CCc1cc(Nc2nccn3c(-c4ccc(OC)c(F)c4F)cnc23)ccc1C(=O)NCC[C@H](NC(=O)C1CC[N+](C)(CC2CNC2)CC1)C(=O)OC` (mixture of isomers) [Example 123, Methyl (2S)-2-[[1-(azetidin-3-ylmethyl)-1-methyl-piperidin-1-ium-4-carbonyl]amino]-4-[[4-[[3-(2,3-difluoro-4-methoxy-phenyl)imidazo[1,2-a]pyrazin-8-yl]amino]-2-ethyl-benzoyl]amino]butanoate formate 2,2,2-trifluoroacetate (Mixed Salt)], the IC90 turned out to be 5000 nM.

The same experiment, now with this note: Acinetobacter baumannii, ATCC17961, 16 h, 90% growth inhibition, Iso-Sensitest broth, OD 600 nm over 16 h, 35±2° C.; read-out: ATCC 17961 IC90.
Consider `CCc1cc(Nc2nccn3c(-c4ccc(OC)c(F)c4F)cnc23)ccc1C(=O)NC[C@H](NC(=O)C1CC[N+](C)(CC2CNC2)CC1)C(=O)OC` (mixture of isomers) [Example 120, Methyl (2S)-2-[[1-(azetidin-3-ylmethyl)-1-methyl-piperidin-1-ium-4-carbonyl]amino]-3-[[4-[[3-(2,3-difluoro-4-methoxy-phenyl)imidazo[1,2-a]pyrazin-8-yl]amino]-2-ethyl-benzoyl]amino]propanoate formate 2,2,2-trifluoroacetate (Mixed Salt)], for which the IC90 was found to be 682 nM. Consider `CCc1cc(Nc2nccn3c(-c4ccc(OC)c(F)c4F)cnc23)ccc1C(=O)N[C@@H](CNC(=O)C1CC[N+](C)(CC2CNC2)CC1)C(=O)OC` (mixture of isomers) [Example 122, Methyl (2S)-3-[[1-(azetidin-3-ylmethyl)-1-methyl-piperidin-1-ium-4-carbonyl]amino]-2-[[4-[[3-(2,3-difluoro-4-methoxy-phenyl)imidazo[1,2-a]pyrazin-8-yl]amino]-2-ethyl-benzoyl]amino]propanoate formate 2,2,2-trifluoroacetate (Mixed Salt)], for which the IC90 was 1110 nM. `CCc1cc(Nc2nccn3c(-c4ccc(OC)c(F)c4F)cnc23)ccc1C(=O)N[C@H]1[C@@H]2C[N+](C)(CC3CNC3)C[C@@H]21` (mixture of isomers) [Example 137, 4-[[3-(2,3-Difluoro-4-methoxy-phenyl)imidazo[1,2-a]pyrazin-8-yl]amino]-2-ethyl-N-[rac-(1S,5R)-3-(azetidin-3-ylmethyl)-3-methyl-3-azoniabicyclo[3.1.0]hexan-6-yl]benzamide bis(2,2,2-trifluoroacetate)]: the IC90 is 1220 nM.

For `CCc1cc(Nc2nccn3c(-c4ccc(Oc5ncccn5)c(F)c4F)cnc23)ccc1C(=O)NCCCNC(=O)C1CC[N+](C)(CC2CCNC2)CC1` (stereo not shown) [Example 3, N-[3-[[4-[[3-(2,3-difluoro-4-pyrimidin-2-yloxy-phenyl)imidazo[1,2-a]pyrazin-8-yl]amino]-2-ethyl-benzoyl]amino]propyl]-1-methyl-1-(pyrrolidin-3-ylmethyl)piperidin-1-ium-4-carboxamide Formate], the IC90 is 484 nM.

In the case of `CCc1cc(Nc2nccn3c(-c4cn(CC#N)nc4C(F)(F)F)cnc23)ccc1C(=O)NCCOCC[N+]1(CC#N)CCCC1` [Example 4, 1-(Cyanomethyl)-1-(2-(2-(4-((3-(1-(cyanomethyl)-3-(trifluoromethyl)-1H-pyrazol-4-yl)imidazo[1,2-a]pyrazin-8-yl)amino)-2-ethylbenzamido)ethoxy)ethyl)pyrrolidin-1-ium Formate], the 90% effect concentration (IC90) was 267 nM.

With `C[N+](C)(C)CC(=O)NCCCNC(=O)c1ccc(Nc2nccn3c(-c4c[nH]nc4C(F)(F)F)cnc23)cc1Cl` [Example 7, [2-[3-[[2-Chloro-4-[[3-[3-(trifluoromethyl)-1H-pyrazol-4-yl]imidazo[1,2-a]pyrazin-8-yl]amino]benzoyl]amino]propylamino]-2-oxo-ethyl]-trimethyl-ammonium Formate], the 90% effect concentration (IC90) was found to be 1160 nM.

On to `CCc1cc(Nc2nccn3c(-c4cn(CC(F)F)nc4C(F)(F)F)cnc23)ccc1C(=O)NCCCCC[N+](C)(CC(=O)O)CC1CNC1` (stereo not shown) [Example 8, azetidin-3-ylmethyl-(carboxymethyl)-[5-[[4-[[3-[1-(2,2-difluoroethyl)-3-(trifluoromethyl)pyrazol-4-yl]imidazo[1,2-a]pyrazin-8-yl]amino]-2-ethyl-benzoyl]amino]pentyl]-methyl-ammonium Formate], for which the IC90 turned out to be 600 nM. Regarding `CCc1cc(Nc2nccn3c(-c4ccc(OC(F)F)c(F)c4F)cnc23)ccc1C(=O)N1CCN(C(=O)C2CC[N+](C)(CC(N)=O)CC2)CC1` (stereo not shown) [Example 9, 1-(2-amino-2-oxoethyl)-4-(4-(4-((3-(4-(difluoromethoxy)-2,3-difluorophenyl)imidazo[1,2-a]pyrazin-8-yl)amino)-2-ethylbenzoyl)piperazine-1-carbonyl)-1-methylpiperidin-1-ium Formate], the IC90 stood at 63.5 nM.

Consider `CCc1cc(Nc2nccn3c(-c4ccc(OC(F)F)c(F)c4F)cnc23)ccc1C(=O)NCCC1CC[N+](C)(CC2CNC2)CC1` (stereo not shown) [Example 10, N-[2-[1-(azetidin-3-ylmethyl)-1-methyl-piperidin-1-ium-4-yl]ethyl]-4-[[3-[4-(difluoromethoxy)-2,3-difluoro-phenyl]imidazo[1,2-a]pyrazin-8-yl]amino]-2-ethyl-benzamide Diformate], for which the IC90 was 157 nM.

With `CCc1cc(Nc2nccn3c(-c4ccc(OC)c(F)c4F)cnc23)ccc1C(=O)NCCCCC[N+](C)(CCCCCN)CC(=O)O` (stereo not shown) [Example 11, 5-Aminopentyl-(carboxymethyl)-[5-[[4-[[3-(2,3-difluoro-4-methoxy-phenyl)imidazo[1,2-a]pyrazin-8-yl]amino]-2-ethyl-benzoyl]amino]pentyl]-methyl-ammonium 2,2,2-trifluoroacetate], the IC90 stood at 131 nM. Consider `COc1ccc(-c2cnc3c(Nc4ccc(C(=O)N5CCN(C(=O)C[N+](C)(C)C)CC5)c(Cl)c4)nccn23)c(F)c1F` [Example 12, 2-(4-(2-Chloro-4-((3-(2,3-difluoro-4-methoxyphenyl)imidazo[1,2-a]pyrazin-8-yl)amino)benzoyl)piperazin-1-yl)-N,N,N-trimethyl-2-oxoethan-1-aminium Iodide], for which the IC90 was found to be 44.7 nM. With `COc1ccc(-c2cnc3c(Nc4cc(C)c(C(=O)NCCOCC[N+](C)(C)C)c(F)c4)nccn23)c(F)c1F` [Example 18, 2-(2-(4-((3-(2,3-Difluoro-4-methoxyphenyl)imidazo[1,2-a]pyrazin-8-yl)amino)-2-fluoro-6-methylbenzamido)ethoxy)-N,N,N-trimethylethan-1-aminium Hydrogen Carbonate], the IC90 turned out to be 336 nM. As for `COc1ccc(-c2cnc3c(Nc4ccc(C(=O)N5CCN(C(=O)[C@@H]6C[C@@H](O)C[N+]6(C)C)CC5)c(C)c4)nccn23)c(F)c1F` [Example 55, (2S,4R)-2-(4-(4-((3-(2,3-Difluoro-4-methoxyphenyl)imidazo[1,2-a]pyrazin-8-yl)amino)-2-methylbenzoyl)piperazine-1-carbonyl)-4-hydroxy-1,1-dimethylpyrrolidin-1-ium Formate], the IC90 came out at 132 nM. For the molecule `Cc1cc(Nc2nccn3c(-c4ccc(OCC#N)c(F)c4F)cnc23)ccc1C(=O)N1CCN(C(=O)C[N+](C)(C)C)CC1` [Example 56, [2-[4-[4-[[3-[4-(Cyanomethoxy)-2,3-difluorophenyl]imidazo[1,2-a]pyrazin-8-yl]amino]-2-methylbenzoyl]piperazin-1-yl]-2-oxoethyl]-trimethylazanium Iodide], the IC90 was determined as 59.6 nM. Regarding `Cc1cc(Nc2nccn3c(-c4ccc(OC(F)F)cc4)cnc23)ccc1C(=O)N(C)CCC1CC[N+](C)(CCCC(=O)O)CC1` (stereo not shown) [Example 57, 4-[4-[2-[[4-[[3-[4-(Difluoromethoxy)phenyl]imidazo[1,2-a]pyrazin-8-yl]amino]-2-methylbenzoyl]-methylamino]ethyl]-1-methylpiperidin-1-ium-1-yl]butanoic acid Hydrochloride], the IC90 stood at 2180 nM. Take `C[N+](C)(C)CC(=O)NCCNC(=O)c1ccc(Nc2nccn3c(-c4c[nH]nc4C(F)(F)F)cnc23)cc1Cl` [Example 58, [2-[2-[[2-Chloro-4-[[3-[3-(trifluoromethyl)-1H-pyrazol-4-yl]imidazo[1,2-a]pyrazin-8-yl]amino]benzoyl]amino]ethylamino]-2-oxo-ethyl]-trimethyl-ammonium formate]: the IC90 came out at 1580 nM.

For `COc1ccc(-c2cnc3c(Nc4ccc(C(=O)N[C@H]5C[C@@H](NC(=O)C[N+](C)(C)C)C5)c(Cl)c4)nccn23)c(F)c1F` [Example 59, [2-[[3-[[2-Chloro-4-[[3-(2,3-difluoro-4-methoxy-phenyl)imidazo[1,2-a]pyrazin-8-yl]amino]benzoyl]amino]cyclobutyl]amino]-2-oxo-ethyl]-trimethyl-ammonium formate], the 90% effect concentration (IC90) was determined as 41 nM.
